Measured values reported in patent publication US20210163937A1, “[…] GENOME-EDITED CELLS” (B.R.A.I.N. Biotechnology Research and Information Network AG, priority 2018, published 2021).

Tests used:
Format in all cases: cell-based, human
HaCaT cells [1] = assay: Co-editing of LRRC8D and EMX1 with blasticidin enrichment, Sanger sequencing and ICE analysis; conditions: transfected HaCaT cells treated with blasticidin
Experimental: The functionality of the above-described co-editing system was tested by using EMX1 (Empty Spiracles Homeobox 1) as gene-of-interest and LRRC8D as blasticidin resistance-mediating gene. EMX1 is a commonly used reference gene in CRISPR-based research^23. Instead of LRRC8A, another member of the LRRC8 gene family, LRRC8D, was used. First, the coding sequences of two sgRNAs targeting the LRRC8D and EMX1 gene were cloned into an expression plasmid containing the coding sequence for the Cas9 nuclease (FIGS. 4 and 5A). Then HaCaT cells were transfected with the expression plasmids and cells were either treated or not treated with blasticidin (FIG. 5A). After several days of cultivation, genomic DNA was extracted and used in PCR to amplify the genomic-region of the LRRC8D and EMX gene. The PCR products were analyzed by Sanger sequencing and subsequent ICE (Inference of CRISPR Edits)^24 analysis to determine the genetic modifications occurring in the treated and non-treated HaCaT cells (FIG. 5B). Strikingly, when the transfected HaCaT cell pool was not treated with blasticidin, no editing event could be detected; neither in the EMX1 nor in the LRRC8D gene.

[2] = system: HaCaT knock-out cells devoid of LRRC8D; assay: Blasticidin tolerance of LRRC8D knock-out cells; conditions: LRRC8D gene knock-out
Text: FIG. 2: (A) Microscopic analysis of cytotoxic effect of blasticidin on HaCaT wildtype keratinocytes (VVT) (upper panel), HaCaT knock-out cells devoid of LRRC8A (LRRC8A^−/− KO) and HaCaT knock-out cells devoid of LRRC8D (LRRC8D^−/− KO). (B) Graphical display of survival rate of HaCaT wildtype vs. LRRC8A knock-out cells in presence of blasticidin.
(§1) In order to determine the tolerance against the antibiotic blasticidin, HaCaT wildtype keratinocytes (VVT; Boukamp, et al.1988, The Journal of Cell Biology, 106(3):761-771.) as well as HaCaT-LRRC8A^−/− knock-out (KO) cells were treated with different concentrations of blasticidin and growth was determined microscopically for several days (FIG. 2). […] As previously shown for KBM-7cells^10, the LRRC8D subunit is also required for blasticidin uptake in HaCaT cells (FIG. 2A).

[3] = system: non-pure LRRC8A−/− HaCaT cell clone; assay: Removal of wildtype cells from a mixed LRRC8A−/− cell pool, PCR of genomic DNA; conditions: single pulse 4 μg/ml blasticidin for 24 h, then blasticidin-free medium
Text: Creating single cell clones is one of the most challenging tasks in all fields of genome engineering. […] Therefore it was of interest to analyze whether the LRRC8A-mediated blasticidin resistance could be a very easy method to get rid of non-edited wildtype cells. To mimic this issue, a non-pure LRRC8A^−/− HaCaT cell clone, which contained the desired 300 bp LRRC8A genomic deletion as well as few undesired HaCaT wildtype cells, was chosen and either treated or not treated with a single blasticidin pulse (4 μg/ml blasticidin applied for 24 h) (FIG. 3A). Then cultivation medium was changed and cells were cultivated in absence of blasticidin. Genomic DNA was isolated and PCR was performed to visualize the genomic deletion of LRRC8A in knock-out cells and/or the non-deleted, intact LRRC8A gene of wildtype cells (FIG. 3B). […] Strikingly, treatment with blasticidin prevented this effect: No
This also proves that disruption of the LRRC8A-mediated blasticidin resistance can not only be used to create blasticidin-resistant cells but that it is also suited to get rid of unwanted wildtype cells during genome engineering.

[4] = system: HaCaT-LRRC8A−/− knock-out (KO) cells; assay: Blasticidin tolerance, growth determined microscopically
Experimental: as §1

[5] = system: HaCaT wildtype keratinocytes; assay: as above; conditions: 4 μg/ml blasticidin, HaCaT-WT cells
Experimental: as §1

HaCaT cells [6] = assay: Co-editing of LRRC8A and EMX1 with blasticidin enrichment, ICE analysis; conditions: for EMX1 editing: after blasticidin
Experimental: (§2) To further increase the editing rate of the gene of interest, the two single sgRNA cassettes of the gene of interest and the LRRC8A or LRRC8D selection gene (FIG. 6A) can be transcriptionally coupled, for example by coupling the sgRNAs via ribozyme structures (FIG. 6B) or by other processing sites such as tRNAs (FIG. 6C). […] Then HaCaT cells were transfected with the corresponding expression plasmids and cells were treated and analyzed as described in Example 4.
The initial editing rates for EMX1 and LRRC8A were determined 48 h post-transfection and were very low (<5%) (FIG. 7A). Treatment with blasticidin led to drastic increase of LRRC8A editing (>95%), which was equally high independent of the sgRNA expression construct showing efficient enrichment of LRRC8A-KO cells using blasticidin (FIG. 7A). When sgRNA expression cassette of EMX1 was independent from that of LRRC8A, EMX1 editing was increased from 3 to 7%. Strikingly, by coupling the two sgRNA cassettes of EMX1 and LRRC8A via ribozymes, EMX1 editing could drastically be increased from 7% to >70% (FIG. 7A). This clearly proves that the above-described strategy to increase low editing events by transcriptional coupling is functioning.

HEK293 cells [7] = assay: as above; conditions: HEK293, after blasticidin
Experimental: as §2
To confirm the suitability of the co-editing strategy of the present invention also for a different cell type, the same experimental setup was applied for HEK293 cells (FIG. 7B). Again, initial editing of the gene of interest EMX1 was also very low in HEK293 cells. By applying the co-editing strategy as presented above for HaCaT cells, it was also possible to increase the editing rates to approx. 60% for EMX1 and approx. 90% for LRRC8A in HEK293 cells (using uncoupled sgRNA expression constructs) (FIG. 7B).
Again, by transcriptional coupling it was possible to further increase editing rates for EMX1 from 62% to 74% (FIG. 7B).

HEK293 cells [8] = assay: HR-dependent LRRC8A gene disruption, cell growth under blasticidin; conditions: HEK293, Cas9 + intronic LRRC8A sgRNA, treated 72 h after transfection
Experimental: Next, it was tested whether the above-described strategy (Example 6, FIG. 8) can indeed be employed to enrich HR-capable cells (or conversely to get rid of cells which have performed NHEJ). First, a HDR donor template was designed (FIG. 9A), which creates a modified, non-functional LRRC8A sequence after successful insertion via HR. The HDR donor template is composed of left and right HR flaks, which are complementary to intronic and exon-3 LRRC8A sequence, respectively. The exon-3 sequence used in the HDR donor template carries two modifications to create non-functional LRRC8A: (i) Mutation of the translational start site ATG to ATT and (ii) deletion of one nucleotide (Guanin) to create LRRC8A frameshift. To also test whether foreign or recombinant DNA sequences can be inserted into the LRRC8A locus as well, the restriction site for the Kpnl restriction enzyme was included into the HDR donor template. To prevent the repeated cutting of the Cas9 enzyme (which would prevent successful HDR donor template insertion), the spacer sequence of the sgRNA (which is used to induce the DSB at the intronic region of LRRC8A) was modified by mutating the PAM motif and the seed region. […]

CN(CC[C@H](N)CC(=O)N[C@H]1C=C[C@H](n2ccc(N)nc2=O)O[C@@H]1C(=O)O)C(=N)N [blasticidin]
editing percentage of the LRRC8D gene (HaCaT cells [1]): 90% | editing percentage of the co-edited EMX1 gene (HaCaT cells [1]): 6% | blasticidin resistance of LRRC8D knock-out cells [2]: resistant | PCR products of wildtype and knock-out cells after blasticidin treatment [3]: only the PCR product of the pure knock-out cell clone was detectable | survival of cells under blasticidin treatment [4]: survived the treatment | growth of cells in presence of blasticidin [5]: not able to grow anymore and died | LRRC8A editing (HaCaT cells [6]; after blasticidin treatment, independent of sgRNA expression construct): > 95% | EMX1 editing (HaCaT cells [6]; EMX1 sgRNA cassette independent from LRRC8A): 7% | EMX1 editing (HaCaT cells [6]; sgRNA cassettes coupled via ribozymes HDV/HH): > 70% | editing rate for EMX1 (HEK293 cells [7]; transcriptional coupling): 74% | editing rate for LRRC8A (HEK293 cells [7]; uncoupled sgRNA expression constructs): approx. 90% | cell growth under blasticidin treatment (HEK293 cells [8]; HDR donor template included): cell growth was observed | cell growth under blasticidin treatment (HEK293 cells [8]; HDR template omitted): no cell growth was observed
